Data set [1] in a line: Plasma concentration of COL-3 in humans. The data set is classed as in vivo. To be noted: dose of about 10 to about 20 mg/day. The protocol: An example of a COL is 6-demethyl-6-deoxy-4-de(dimethylamino)tetracycline (COL-3). COL-3 is administered in doses of up to about 200 mg/day, preferably about 150 mg/day, more preferably about 100 mg/day, or in amounts that result in plasma concentrations of up to about 50 μg/ml, about 40 μg/ml or about 30 μg/ml. For example, a dose of about 10 to about 20 mg/day of COL-3 produces plasma concentrations in humans of about 1.0 μg/ml.

Another data set concerns herpes zoster (shingles). Put plainly: Case report: patient on sub-antibacterial doxycycline hyclate who presented with shingles. To be noted: one patient. The data set is classed as in vivo, human. The protocol:
The below Example summarizes an incidence using 20 mg doxycycline hyclate tablets administered twice a day.
A person (hereinafter “the patient”) had been taking generic Periostat® (20 mg doxycycline hyclate b.i.d.) for over a six month period when they presented with shingles. […] By this time, the patient had blistering and vesicular lesions, and lesions consisting of deep scabs on their face (e.g., upper cheek), neck and chest. All lesions presented on patient's left side without crossing the midline.
The patient also reported being lethargic, weak and dizzy.
The medical doctor who examined the patient was very surprised to hear that the lesions were not painful. They said that the lesions were at the stage where they typically cause intense pain. The doctor predicted that, even if the lesions were not painful at the moment, they would become very painful shortly, particularly since antiviral therapy would be initiated after 72 hours of the appearance of the characteristic lesions. Accordingly, the doctor prescribed the narcotic pain reliever Percocet®.
The doctor also prescribed VALTREX®, an antiherpetic medication, in a dose of a 1 gram tablet, taken 3 times a day for 7 days. The doctor advised that VALTREX® should have been started within 2 or 3 days of the first appearance of a lesion in order to effectively minimize pain.
The patient began taking the VALTREX®, as prescribed. […]

Two molecules from patent publication US8735377B1, “Methods of treating herpes zoster” (priority 2010, dated 2014) can be followed below.

For the molecule `NC(=O)C1=C(O)C[C@@H]2C[C@@H]3Cc4cccc(O)c4C(=O)C3=C(O)[C@]2(O)C1=O` [COL-3, 6-demethyl-6-deoxy-4-dedimethylaminotetracycline], the “plasma concentration in humans” value in data set [1] is reported as “about 1.0 μg/ml”. Take doxycycline hyclate: the “pain reported by the patient throughout the course of shingles” value with herpes zoster (shingles) (20 mg b.i.d., no analgesic taken) is listed as “did not feel any pain whatsoever”. Besides, the “inhibition of the pain typically associated with lesions of shingles” value in the data set on herpes zoster (shingles) (20 mg tablets twice a day, taken for over six months before onset, VALTREX started over 96 hours after first lesion, no analgesic) is “virtually complete inhibition”.
